Results from patent publication US7163952B2, “Azole compound and medicinal use thereof” (Japan Tobacco Inc., priority 2001, dated 2007).

Tests used:
male ob/ob mice = assay: Hypoglycemic action in ob/ob mice, oral administration; type: in vivo; conditions: Mus musculus, fasting, 3 hr after administration, relative to control group, read-out: Decrease in blood glucose level (%) 3 hr; for inhibition in vivo at 1 mg/kg: dose 1 mg/kg oral; for inhibition in vivo at 3 mg/kg: dose 3 mg/kg oral
Protocol: A 0.5% methyl cellulose suspension of the test compound was orally administered to male ob/ob mice (6 to 9 weeks old) grouped based on blood glucose level. A 0.5% methyl cellulose solution alone was administered to a control group.
The blood was drawn from the orbital vein with anesthesia at 3 hours after the administration. The blood was drawn under fasting by removing the feed immediately before test compound administration. The blood thus drawn was separated by centrifugation and the blood glucose level was measured from the obtained plasma according to the hexokinase method (glucose measure kit). For evaluation, decrease in the blood glucose level of the test compound administration group relative to the control group was shown in percentage.

[1] = biological target: T1, recombinant human protein tyrosine phosphatase 1B (Homo sapiens, UniProt P18031); assay: Protein tyrosine phosphatase 1B inhibitory action (malachite green, phosphorylated insulin receptor peptide substrate); type: biochemical; conditions: recombinant human PTP1B, 60 min room temperature, absorbance at 650 nm
T1 construct: purchased UBI
T1 sequence (P18031 1-435): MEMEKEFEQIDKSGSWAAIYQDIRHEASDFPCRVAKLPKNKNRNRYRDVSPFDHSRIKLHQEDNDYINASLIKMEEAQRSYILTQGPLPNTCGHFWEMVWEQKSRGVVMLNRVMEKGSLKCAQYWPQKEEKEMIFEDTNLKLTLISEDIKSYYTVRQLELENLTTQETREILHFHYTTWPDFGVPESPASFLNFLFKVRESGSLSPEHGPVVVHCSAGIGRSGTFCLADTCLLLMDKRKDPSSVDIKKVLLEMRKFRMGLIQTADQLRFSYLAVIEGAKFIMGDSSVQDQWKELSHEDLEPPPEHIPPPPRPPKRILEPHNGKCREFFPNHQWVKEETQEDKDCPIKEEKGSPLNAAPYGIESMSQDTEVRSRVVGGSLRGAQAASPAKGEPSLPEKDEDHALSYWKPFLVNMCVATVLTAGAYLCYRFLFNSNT
Protocol: Preparation of Assay Buffer:
50 mM Tris-HCl buffer (pH 7.5), and 50 mM NaCl and 3 mM dithiothreitol (DTT) were prepared.
Respective 10 mM DMSO solutions of 0.1, 0.3, 1, 3 and 10 μM test compounds were diluted with the above-mentioned assay buffer so that the final dimethyl sulfoxide (DMSO) concentration would be not more than 1%. As a control, an assay buffer was used.
Preparation of Substrate:
A synthetic peptide consisting of 12 amino acids corresponding to 1142nd–1153rd of insulin receptor sequence, wherein three tyrosines therein had been phosphorylated, was diluted with the above-mentioned assay buffer to 80 μM.
A recombinant human protein tyrosine phosphatase 1B (manufactured by UBI) was diluted with the above-mentioned assay buffer (1.2 ng/25 μl).
A sample (10 μl) and a substrate (25 μl) prepared as mentioned above were successively added to a 96 well plate, and an enzyme (25 μl) prepared as mentioned above was added and mixed. After incubation at room temperature for 60 min., malachite green (120 μl, Biomol), which is a phosphorus color fixing agent, was added, and the mixture was further incubated at room temperature for 20 min. to allow color development. The absorbance at 650 nm was measured on a plate reader, and the protein tyrosine phosphatase 1B inhibitory action of the test compound was evaluated.

| SMILES | inhibition in vivo at 0.3 mg/kg (male ob/ob mice; dose 0.3 mg/kg oral) [%] | inhibition in vivo at 1 mg/kg (male ob/ob mice) [%] | inhibition in vivo at 3 mg/kg (male ob/ob mice) [%] | IC50 [1] [µM] | melting point |
| --- | --- | --- | --- | --- | --- |
| CN(Cc1ccc(C2CCCCC2)cc1)c1ccc(-c2csc(N(C)Cc3ccc(C(=O)O)cc3)n2)cc1 [Example 1, 4-(N-(4-(4-(N-(4-cyclohexylbenzyl)-N-methylamino)phenyl)-2-thiazolyl)-N-methylaminomethyl)benzoic acid] | 35 | 35 | 35 | 0.32 | – |
| CN(Cc1ccc(C(=O)O)cc1)c1nc(-c2ccc(OCc3ccc(C4CCCCC4)cc3)cc2)cs1 [Example 2, potassium 4-(N-(4-(4-(4-cyclohexylbenzyloxy)phenyl)-2-thiazolyl)-N-methylaminomethyl)benzoate] | – | 37 | 47 | 0.22 | – |
| CN(c1ccc(C(=O)O)cc1)c1nc(-c2ccc(NCc3ccc(C4CCCCC4)cc3)cc2)cs1 [Example 3, 4-(N-(4-(4-(4-cyclohexylbenzylamino)phenyl)-2-thiazolyl)-N-methylamino)benzoic acid] | – | 27 | 35 | 0.5 | – |
| CN(Cc1ccc(C(=O)O)cc1)c1nc(-c2ccc(NCc3ccc(C4CCCCC4)cc3)cc2)cs1 [Example 115, 4-((N-(4-(4-(4-cyclohexylbenzylamino)phenyl)-2-thiazolyl)-N-methylamino)methyl)benzoic acid] | – | – | 34 | 0.48 | 184 °C (dec.) |
| CN(Cc1ccc([C@H]2CC[C@H](O)CC2)cc1)c1ccc(-c2csc(N(C)Cc3ccc(C(=O)O)cc3)n2)cc1 [Example 196, trans-4-((N-(4-(4-(N-(4-(4-hydroxycyclohexyl)benzyl)-N-methylamino)phenyl)-2-thiazolyl)-N-methylamino)methyl)benzoic acid] | – | – | -8 | 0.83 | 194 to 196 °C |
| CN(Cc1ccc(C2CCC(Cl)(Cl)CC2)cc1)c1ccc(-c2csc(N(C)Cc3ccc(C(=O)O)cc3)n2)cc1 [Example 208, 4-((N-(4-(4-(N-(4-(4,4-dichlorocyclohexyl)benzyl)-N-methylamino)phenyl)-2-thiazolyl)-N-methylamino)methyl)benzoic acid] | – | – | 21 | 0.11 | 210 to 213 °C |
| CN(Cc1ccc(C2CCC(F)(F)CC2)cc1)c1ccc(-c2csc(N(C)Cc3ccc(C(=O)O)cc3)n2)cc1 [Example 209, 4-((N-(4-(4-(N-(4-(4,4-difluorocyclohexyl)benzyl)-N-methylamino)phenyl)-2-thiazolyl)-N-methylamino)methyl)benzoic acid] | – | – | 20 | 0.49 | 190 to 193 °C |
| CC(C)OC(=O)OC(C)OC(=O)c1ccc(CN(C)c2nc(-c3ccc(OCc4ccc(C5CCCCC5)cc4)cc3)cs2)cc1 (stereo not shown) [Example 271, 1-isopropoxycarbonyloxyethyl 4-((N-(4-(4-(4-cyclohexylbenzyloxy)phenyl)-2-thiazolyl)-N-methylamino)methyl)benzoate] | – | – | – | – | 76 to 84 °C |
| CC(OC(=O)OC1CCCCC1)OC(=O)c1ccc(CN(C)c2nc(-c3ccc(OCc4ccc(C5CCCCC5)cc4)cc3)cs2)cc1 (stereo not shown) [Example 272, 1-cyclohexyloxycarbonyloxyethyl 4-((N-(4-(4-(4-cyclohexylbenzyloxy)phenyl)-2-thiazolyl)-N-methylamino)methyl)benzoate] | – | – | – | – | 75 to 79 °C |
| Cc1oc(=O)oc1COC(=O)c1ccc(CN(C)c2nc(-c3ccc(OCc4ccc(C5CCCCC5)cc4)cc3)cs2)cc1 [Example 273, 5-methyl-2-oxo-1,3-dioxl-4-ylmethyl 4-((N-(4-(4-(4-cyclohexylbenzyloxy)phenyl)-2-thiazolyl)-N-methylamino)methyl)benzoate] | – | – | – | – | 87 to 92 °C |
